# Patent US11149052B2, “2′3′-cyclic dinucleotides” (Institute of Organic Chemistry and Biochemistry, ASCR, V.V.I, priority 2018, dated 2021)
# What was measured:
# [1] = target: human wild type STING (WT STING) (Homo sapiens, UniProt Q86WV6, H232R); assay: Digitonin assay using 293T wtSTING-FL reporter cells (ISRE firefly luciferase reporter); type: cell-based; settings: 293T wtSTING-FL cells; 30 min in Digitonin buffer, then 5 hours; luciferase read-out; 8-point dose-response curve; read-out: Digitonin assay EC50 (μmol · l^−1) WT STING
# Sequence of human wild type STING (WT STING) (Q86WV6 whole entry H232R): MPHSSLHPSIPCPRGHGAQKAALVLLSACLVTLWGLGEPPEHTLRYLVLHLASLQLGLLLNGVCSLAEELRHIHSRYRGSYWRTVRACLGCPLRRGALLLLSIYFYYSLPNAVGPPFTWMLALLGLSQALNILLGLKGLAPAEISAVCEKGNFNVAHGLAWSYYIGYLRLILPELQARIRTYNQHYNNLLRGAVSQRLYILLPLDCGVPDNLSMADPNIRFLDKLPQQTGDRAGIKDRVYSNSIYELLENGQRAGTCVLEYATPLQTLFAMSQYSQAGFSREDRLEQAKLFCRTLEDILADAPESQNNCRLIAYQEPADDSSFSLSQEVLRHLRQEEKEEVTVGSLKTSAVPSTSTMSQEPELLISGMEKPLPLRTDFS
# Text: Two complementary oligonucleotides of the sequence […] […] […] […] […] The oligonucleotides were mixed in equal molar amounts, hybridized, and cleaved by restriction endonucleases HindIII (cat. #. R0104S, NEB, Ipswich, USA) and BglII (cat. #R0144S, NEB, Ipswich, USA). Ultimately, they were ligated into plasmid pGL4.27 (cat. #E6651, Promega, Madison, USA) linearized with the same enzymes. As result the sequence with four ISRE sites was placed upstream of the minimum promoter of firefly luciferase reporter gene.
# After 5 minutes incubation at room temperature (RT), 250 μL of the mixture was added dropwise to the cells in one well.
# Transfected cells were seeded onto poly-D-lysine coated six well plates at density 50,000 cells per 1 cm^2 in DMEM medium with high glucose containing 10% heat inactivated FBS, 30 μg/mL blasticidin (cat. #ant-bl-05, InvivoGen, San Diego, USA), 0.06 mg/ml Penicillin G and 0.1 mg/ml Streptomycin Sulfate (both cat. #. L0018, Biowest, Riverside, USA). The medium was replenished every 3-4 days until visible colonies of cells resistant to blasticidin were formed.
# Blasticidin resistant cells stably expressing WT STING were further transfected with […] plasmid following the same procedure as described above. […] Homogeneous culture of stably double transfected cells was prepared by limiting dilution of cells in 96 well plates and wells with cells were selected that originated from a single cell.
# The medium was removed next day and three fold serial dilutions of compounds in Digitonin buffer containing 50 mmol·l^−1 HEPES (cat. #H3375, Sigma Aldrich, Czech Republic) pH 7.0, 100 mmol·l^−1 KCl, 3 mmol·l^−1 MgCl2, 0.1 mmol·l^−1 DTT (cat. #D0632, Sigma Aldrich, Czech Republic), 85 mmol·l^−1 Sucrose (cat. #S7903, Sigma Aldrich, Czech Republic), 0.2% BSA (cat. #A2153, Sigma Aldrich, Czech Republic), 1 mmol·l^−1 ATP (cat. #A1852, Sigma Aldrich, Czech Republic), 0.1 mmol·l^−1 GTP (cat. #G8877, Sigma Aldrich, Czech Republic), and 10 μg/mL Digitonin A (cat. #D141, Sigma Aldrich, Czech Republic) were added to the cells. The buffer was removed after 30 minutes incubation at 37° C. with 5% CO2, the cells were washed once with 100 μl of cultivation medium, and 100 IA of medium was added to each well. The plates with cells were incubated for 5 hours at 37° C. with 5% CO2, 50 μl of the medium was removed and 30 μl of ONE-Glo™ Luciferase Assay System reagent (cat. #E6120, Promega, Madison, USA) was added to each well. Luminesce was read on Synergy H1 (Biotek, Winooski, USA).
# [2] = target: T1, WT STING (truncated human WT STING protein) (Homo sapiens, UniProt Q86WV6, H232R); assay: Differential Scanning Fluorimetry with WT STING; type: binding; settings: thermal shift vs apoprotein; 150 μM CDN; 0.1 mg/ml STING protein; SYPRO Orange; read-out: DSF ΔTm (° C.) WT STING
# T1 construct: truncated human WT STING or AQ STING (amino acid residues 140-343); 8xHis (N, cleaved yes); SUMO (N, cleaved yes); made in house; host or cells: E. coli Rosetta-gami B (DE3)
# T1 sequence (Q86WV6 140-343 H232R): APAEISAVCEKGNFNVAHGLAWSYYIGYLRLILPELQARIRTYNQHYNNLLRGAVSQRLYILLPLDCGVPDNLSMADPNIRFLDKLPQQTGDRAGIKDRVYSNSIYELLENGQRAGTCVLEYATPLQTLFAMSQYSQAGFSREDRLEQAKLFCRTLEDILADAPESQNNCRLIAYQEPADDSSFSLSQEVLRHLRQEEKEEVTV
# Description: (§1) Purified PCR products were cleaved with restriction enzymes BamHI (cat. #R0136S, NEB, Ipswich, USA) and NotI (cat. #R0189S, NEB, Ipswich, USA) and cloned into the pSUMO vector linearized with the identical enzymes.
# (§2) DNase I (cat. #D5025, Sigma Aldrich, Czech Republic) and RNase A (cat. #R6513, Sigma Aldrich, Czech Republic) were added (final concentration […]) together with MgCl2 (final concentration 5 mmol·l^−1) to the homogenate and bacteria were lysed using French Press G-M™ High-Pressure Cell Press Homogenizer (1500 psi, 3 cycles). […] The resin was poured into a chromatography column, washed with 50 ml buffer A (50 mmol·l^−1 TrisCl (pH 8.0), 800 mmol·l^−1 NaCl, 3 mmol·l^−1β-mercaptoethanol; 10% glycerol; 20 mmol·l^−1 imidazole) and 8-His-SUMO tagged STING proteins were eluted with 15 ml buffer A containing 300 mmol·l^−1 imidazole. […] Proteins were concentrated with Amicon® Ultra-15 10 K device (cat. #UFC901008, Merck Millipore, Billerica, USA) and flash frozen in liquid N2.
# (§3) Differential Scanning Fluorimetry with WT STING and AQ STING
# (§4) 20 μL solutions of the reaction mixtures were pipetted in triplicates into 96 well optical reaction plates and thermal denaturation of samples were performed on real time PCR cycler (LightCycler® 480 Instrument II—Roche, Base^1, Switzerland). The first derivative of the thermal denaturation curves was performed to calculate denaturing temperatures of STING-CDN complexes and STING apoproteins. The thermal shift for each CDN was calculated by subtracting the average denaturing temperature of STING apoprotein from the average denaturing temperature of STING CDN complex.
# [3] = target: T2, AQ STING (truncated human STING G230A-R293Q allelic form) (Homo sapiens, UniProt Q86WV6, G230A/H232R/R293Q); assay: Differential Scanning Fluorimetry with AQ STING; type: binding; settings: thermal shift vs apoprotein; 150 μM CDN; 0.1 mg/ml STING protein; SYPRO Orange; read-out: DSF ΔTm (° C.) AQ STING
# T2 construct: truncated human WT STING or AQ STING (amino acid residues 140-343); 8xHis (N, cleaved yes); SUMO (N, cleaved yes); made in house; host or cells: E. coli Rosetta-gami B (DE3)
# T2 sequence (Q86WV6 140-343 G230A/H232R/R293Q): as the sequence (Q86WV6 140-343 H232R) above, with G91A, R154Q counted along it
# Description: as §1, §2, §3, §4
SMILES,EC50 [1] [nM],ΔTm at 150 µM [2] [°C],ΔTm at 150 µM [3] [°C]
"Nc1nc2c(ncn2[C@@H]2O[C@@H]3COP(=O)(O)CO[C@H]4[C@@H](O)[C@H](n5cnc6c(N)ncnc65)O[C@@H]4COP(=O)(O)O[C@@H]2C3)c(=O)[nH]1 [Example 21, (1R,6R,8R,9R,10S,16S,18R)-18-(2-amino-6-oxo-6,9-dihydro-1H-purin-9-yl)-8-(6-amino-9H-purin-9-yl)-3,9,13-trihydroxy-2,4,7,11,14,17-hexaoxa-3λ^5,13λ^5-diphosphatricyclo[14.2.1.0^6,^10]nonadecane-3,13-dione]",6,14.2,21
"Nc1ncnc2c1ncn2[C@@H]1O[C@@H]2COP(=O)(O)O[C@@H]3[C@H](F)[C@@H](COP(=O)(O)CO[C@H]2[C@H]1F)O[C@H]3n1cnc2c(N)ncnc21 [Example 22, (1S,6R,8R,9R,10R,16R,18R,19R)-8,18-bis(6-amino-9H-purin-9-yl)-9,19-difluoro-3,13-dihydroxy-2,4,7,11,14,17-hexaoxa-3λ^5,13λ^5-diphosphatricyclo[14.2.1.0^6,^10]nonadecane-3,13-dione]",15,9,11.1
"Nc1ncnc2c1ncn2[C@@H]1O[C@@H]2COP(=O)(O)CO[C@@H]3[C@H](O)[C@@H](COP(=O)(O)O[C@H]2[C@H]1O)O[C@H]3n1cnc2c(N)ncnc21 [Example 23, (1R,6S,7R,8R,10R,16R,17R,19R)-8,17-bis(6-amino-9H-purin-9-yl)-4,7,13,19-tetrahydroxy-3,5,9,12,15,18-hexaoxa-4λ^5,13λ^5-diphosphatricyclo[14.2.1.0^6,^10]nonadecane-4,13-dione]",5900,0.2,3.4
Nc1ncnc2c1ncn2[C@@H]1O[C@@H]2COP(=O)(O)O[C@@H]3[C@H](F)[C@@H](COP(=O)(O)CO[C@H]2[C@H]1F)O[C@H]3n1cnc2c(=O)[nH]cnc21 [Example 24],20,20.4,25.7

# More lines, in order of falling EC50 [1], values ahead:
EC50 [1] [nM],ΔTm at 150 µM [2] [°C],ΔTm at 150 µM [3] [°C],SMILES
580,2.1,7.5,"Nc1nc(N)c2ncn([C@@H]3O[C@@H]4COP(=O)(O)O[C@@H]5[C@H](O)[C@@H](COP(=O)(O)CO[C@H]4[C@H]3F)O[C@H]5n3cnc4c(N)ncnc43)c2n1 [Example 26, (1R,6R,8R,9R,10R,16R,18R,19R)-18-(6-amino-9H-purin-9-yl)-8-(2,6-diamino-9H-purin-9-yl)-9-fluoro-3,13,19-trihydroxy-2,4,7,11,14,17-hexaoxa-3λ^5,13λ^5-diphosphatricyclo[14.2.1.0^6,^10]nonadecane-3,13-dione]"
53,10.6,17.5,"Nc1nc(N)c2ncn([C@@H]3O[C@@H]4COP(=O)(O)CO[C@H]5[C@@H](O)[C@H](n6cnc7c(N)ncnc76)O[C@@H]5COP(=O)(O)O[C@@H]3[C@@H]4F)c2n1 [Example 25, (1S,6R,8R,9R,10S,16R,18R,19R)-8-(6-amino-9H-purin-9-yl)-18-(2,6-diamino-9H-purin-9-yl)-19-fluoro-3,9,13-trihydroxy-2,4,7,11,14,17-hexaoxa-3λ^5,13λ^5-diphosphatricyclo[14.2.1.0^6,^10]nonadecane-3,13-dione]"
